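A five-concentration, 48-hour dose response in 96-well plates underlies each endpoint, interpolated linearly between surrounding concentrations. The concentration for 50% growth inhibition is given as GI50.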 Active and inactive are the calls of the source. Rule as the data show it: active = GI50 up to about 1.1 µM and inactive = higher.
Columns and labels:
Assay in all cases: inhibition of tumour cell growth, NCI panel, 48 h
SF-295 = tested on: SF-295
HOP-92 = tested on: HOP-92
SK-MEL-28 = tested on: SK-MEL-28
MDA-MB-231 = tested on: MDA-MB-231
IGROV-1 = tested on: IGROV-1
HL-60 = tested on: HL-60
NCI-H460 = tested on: NCI-H460
UACC-62 = tested on: UACC-62
Malme-3M = tested on: Malme-3M
SK-MEL-5 = tested on: SK-MEL-5
MCF7 = tested on: MCF7
A549 = tested on: A549
SN12C = tested on: SN12C
NCI/ADR-RES = tested on: NCI/ADR-RES
HCT-116 = tested on: HCT-116
U-251 = tested on: U-251
SF-268 = tested on: SF-268
SK-OV-3 = tested on: SK-OV-3
HCT-15 = tested on: HCT-15
CAKI-1 = tested on: CAKI-1

| Compound | GI50 (SF-295) | GI50 (HOP-92) | GI50 (SK-MEL-28) | GI50 (MDA-MB-231) | GI50 (IGROV-1) | GI50 (HL-60) | GI50 (NCI-H460) | GI50 (UACC-62) | GI50 (Malme-3M) | GI50 (SK-MEL-5) | GI50 (MCF7) | GI50 (A549) | GI50 (SN12C) | GI50 (NCI/ADR-RES) | GI50 (HCT-116) | GI50 (U-251) | GI50 (SF-268) | GI50 (SK-OV-3) | GI50 (HCT-15) [µM] | GI50 (CAKI-1) |
| --- | --- | --- | --- | --- | --- | --- | --- | --- | --- | --- | --- | --- | --- | --- | --- | --- | --- | --- | --- | --- |
| O=C(CCN1CCOCC1)Nc1ccc2sc3ccccc3c(=O)c2n1 | 82.4 µM (inactive) | 45.3 µM (inactive) | 53.5 µM (inactive) | 35.6 µM (inactive) | 30.1 µM (inactive) | > 100 µM (inactive) | 37.8 µM (inactive) | 34.8 µM (inactive) | 20.7 µM (inactive) | 27.1 µM (inactive) | 49.8 µM (inactive) | 38.9 µM (inactive) | 35 µM (inactive) | 43.4 µM (inactive) | 23 µM (inactive) | 42.9 µM (inactive) | 52.2 µM (inactive) | 47.6 µM (inactive) | 33.9 | 23.6 µM (inactive) |
| CCCCC(C#N)(OP1(=O)OC(c2ccccc2)C(C)N1C)c1ccccc1 (stereo not given) | 17.5 µM (inactive) | 12.4 µM (inactive) | 16.3 µM (inactive) | 15.7 µM (inactive) | 16.7 µM (inactive) | 14.4 µM (inactive) | 16.1 µM (inactive) | 14.3 µM (inactive) | 15.6 µM (inactive) | 17.3 µM (inactive) | 19.9 µM (inactive) | 20.1 µM (inactive) | 16.7 µM (inactive) | 20 µM (inactive) | 16.2 µM (inactive) | 17.3 µM (inactive) | 17.4 µM (inactive) | 19.5 µM (inactive) | 20.3 | 18.7 µM (inactive) |
| CCOC(=O)c1nc2ccccc2nc1Nc1cc(OC)c(OC)c(OC)c1 | > 100 µM (inactive) | > 100 µM (inactive) | > 100 µM (inactive) | > 100 µM (inactive) | > 100 µM (inactive) | > 100 µM (inactive) | > 100 µM (inactive) | > 100 µM (inactive) | > 100 µM (inactive) | > 100 µM (inactive) | > 100 µM (inactive) | > 100 µM (inactive) | > 100 µM (inactive) | > 100 µM (inactive) | > 100 µM (inactive) | > 100 µM (inactive) | > 100 µM (inactive) | > 100 µM (inactive) | > 100 | > 100 µM (inactive) |
| COc1ccc(C2=Nn3c(nc4sc(C)c(C)c4c3=O)SC2)cc1 | > 100 µM (inactive) | > 100 µM (inactive) | > 100 µM (inactive) | > 100 µM (inactive) | > 100 µM (inactive) | > 100 µM (inactive) | > 100 µM (inactive) | > 100 µM (inactive) | > 100 µM (inactive) | > 100 µM (inactive) | > 100 µM (inactive) | > 100 µM (inactive) | > 100 µM (inactive) | > 100 µM (inactive) | > 100 µM (inactive) | > 100 µM (inactive) | > 100 µM (inactive) | > 100 µM (inactive) | > 100 | > 100 µM (inactive) |
| CC(C)(C)n1c(=O)n(C(=O)C(Cl)(Cl)Cl)n(C(=O)C(Cl)(Cl)Cl)c1=O | > 100 µM (inactive) | > 100 µM (inactive) | > 100 µM (inactive) | > 100 µM (inactive) | > 100 µM (inactive) | > 100 µM (inactive) | > 100 µM (inactive) | > 100 µM (inactive) | > 100 µM (inactive) | > 100 µM (inactive) | > 100 µM (inactive) | > 100 µM (inactive) | > 100 µM (inactive) | > 100 µM (inactive) | > 100 µM (inactive) | > 100 µM (inactive) | > 100 µM (inactive) | > 100 µM (inactive) | > 100 | > 100 µM (inactive) |
| S=C(Nc1cc(Cl)c(Cl)cc1Cl)SCc1ccccc1 | 19.4 µM (inactive) | 21.3 µM (inactive) | 28.6 µM (inactive) | 13.1 µM (inactive) | 33.9 µM (inactive) | 18.8 µM (inactive) | 45.8 µM (inactive) | 66.5 µM (inactive) | 28.2 µM (inactive) | 20.7 µM (inactive) | 38.5 µM (inactive) | 30 µM (inactive) | > 100 µM (inactive) | 24.9 µM (inactive) | 32.3 µM (inactive) | 22.2 µM (inactive) | 38.1 µM (inactive) | 56 µM (inactive) | 18.1 | 22.6 µM (inactive) |
| CCOC(=O)/C=C(\C(=O)OCC)n1ccc(=O)n(Cc2cn(CCCCOC(C)=O)nn2)c1=O | 35.9 µM (inactive) | 2.55 µM (inactive) | 8.17 µM (inactive) | 18.6 µM (inactive) | 19.5 µM (inactive) | 0.26 µM (active) | 13.6 µM (inactive) | 16.1 µM (inactive) | 2.18 µM (inactive) | 20.5 µM (inactive) | 7.69 µM (inactive) | 21.9 µM (inactive) | 15.2 µM (inactive) | 19.9 µM (inactive) | 11.2 µM (inactive) | 16.1 µM (inactive) | 17.7 µM (inactive) | 32.4 µM (inactive) | 7.01 | 4.25 µM (inactive) |
| O=C(Cn1c(=O)oc2ccc(C(=O)c3cccc(Cl)c3)cc21)c1ccccc1 | 44.6 µM (inactive) | 7.14 µM (inactive) | > 100 µM (inactive) | > 100 µM (inactive) | > 100 µM (inactive) | 19.3 µM (inactive) | 41.7 µM (inactive) | > 100 µM (inactive) | 63 µM (inactive) | 23.1 µM (inactive) | 87.9 µM (inactive) | 27.2 µM (inactive) | > 100 µM (inactive) | > 100 µM (inactive) | > 10 µM (inactive) | > 100 µM (inactive) | > 100 µM (inactive) | 42.1 µM (inactive) | 41.2 | > 100 µM (inactive) |
| C#CCn1c(=O)ccn(/C(=C/C(=O)OCC)C(=O)OCC)c1=O | 24.6 µM (inactive) | 2.38 µM (inactive) | 7.41 µM (inactive) | 14.8 µM (inactive) | 4.21 µM (inactive) | 3.44 µM (inactive) | 2.69 µM (inactive) | 14 µM (inactive) | 1.96 µM (inactive) | 14.5 µM (inactive) | 3.18 µM (inactive) | 17.2 µM (inactive) | 9.08 µM (inactive) | 3.7 µM (inactive) | 6.15 µM (inactive) | 14.2 µM (inactive) | 13.1 µM (inactive) | 35.2 µM (inactive) | 1.06 | 1.58 µM (inactive) |
| Cc1ccc(/C=C2\CCC/C(=C\c3ccc(O)c(CN4CCCCC4)c3)C2=O)cc1 | 10.7 µM (inactive) | 9.71 µM (inactive) | 15.7 µM (inactive) | 5.41 µM (inactive) | 8.02 µM (inactive) | 3.52 µM (inactive) | 3.96 µM (inactive) | 3.92 µM (inactive) | 17.3 µM (inactive) | 6.1 µM (inactive) | 4.44 µM (inactive) | 9.4 µM (inactive) | 9.82 µM (inactive) | 4.07 µM (inactive) | 2.74 µM (inactive) | 5.27 µM (inactive) | 3.14 µM (inactive) | 13.2 µM (inactive) | 3.02 | 14.6 µM (inactive) |
| CCN(CC)c1nc(=O)c(C(=O)C(C)(C)C)c(C(C)(C)C)o1 | > 100 µM (inactive) | > 100 µM (inactive) | > 100 µM (inactive) | > 100 µM (inactive) | > 100 µM (inactive) | > 100 µM (inactive) | > 100 µM (inactive) | > 100 µM (inactive) | > 100 µM (inactive) | > 100 µM (inactive) | > 100 µM (inactive) | > 100 µM (inactive) | > 100 µM (inactive) | > 100 µM (inactive) | > 100 µM (inactive) | > 100 µM (inactive) | > 100 µM (inactive) | > 100 µM (inactive) | > 100 | > 100 µM (inactive) |
| COc1cc(C2c3cc4c(cc3[C@@H](Nc3ccc(C#N)cc3)C3COC(=O)[C@H]23)OCO4)cc(OC)c1O (stereo not given in full) | 0.767 µM (active) | 1.02 µM (active) | 6.97 µM (inactive) | 9.31 µM (inactive) | 6.78 µM (inactive) | 0.143 µM (active) | 0.038 µM (active) | 0.962 µM (active) | 1.29 µM (inactive) | 0.661 µM (active) | 0.881 µM (active) | 0.166 µM (active) | 1.05 µM (active) | 3.98 µM (inactive) | 2.01 µM (inactive) | 1.43 µM (inactive) | 2.43 µM (inactive) | 1.63 µM (inactive) | 2.31 | 0.436 µM (active) |
| CCC1(O)CC(OC2CC(N(C)C)C(OC3CC(O)C(OC4OC(C)C(=O)C=C4N)C(C)O3)C(C)O2)c2c(cc3c(c2O)C(=O)c2c(O)cccc2C3=O)C1C(=O)OC (stereo not given) | 0.0016 µM (active) | 0.0746 µM (active) | 0.0272 µM (active) | 0.29 µM (active) | 0.00302 µM (active) | 0.0177 µM (active) | < 0.001 µM (active) | 0.0121 µM (active) | 0.0508 µM (active) | 0.00469 µM (active) | 0.01 µM (active) | 0.00272 µM (active) | 0.158 µM (active) | 1.25 µM (inactive) | < 0.001 µM (active) | 0.00385 µM (active) | 0.199 µM (active) | 0.0518 µM (active) | 0.241 | 0.00604 µM (active) |
| NS(=O)(=O)c1ccc(/N=N/c2cccnc2O)cc1 | > 100 µM (inactive) | > 100 µM (inactive) | > 100 µM (inactive) | > 100 µM (inactive) | > 100 µM (inactive) | > 100 µM (inactive) | > 100 µM (inactive) | > 100 µM (inactive) | > 100 µM (inactive) | > 100 µM (inactive) | > 100 µM (inactive) | > 100 µM (inactive) | > 100 µM (inactive) | > 100 µM (inactive) | > 100 µM (inactive) | > 100 µM (inactive) | > 100 µM (inactive) | > 100 µM (inactive) | > 100 | > 100 µM (inactive) |

Source: ChEMBL document CHEMBL1201862, “PubChem BioAssay data set” (2004)
